Test results taken from paper PMC8954204, “Synthesis and Evaluation of a ^18F-Labeled Ligand for PET Imaging of Colony-Stimulating Factor 1 Receptor” (Pharmaceuticals, 2022).
Values belong to the molecule of their own block, whether it stands above or below them.

Legend:
CSF1R [1] = test system: CSF1R; parameters: method as in PMID 33757319; settings: rhesus monkey; cited from earlier work
[2] = octanol-water partition coefficient; format: physicochemical; settings: 1-octanol/water; read-out: log P (octanol-water partition coefficient)
Description: Radioligand [^18F]1 was dissolved in 800 μL 1-octanol and mixed with 800 μL water, vortexed vigorously for 5 min, and centrifuged. Two layers were separated, and 100 μL aliquots of the 1-octanol and aqueous layers were removed and counted. Samples from the 1-octanol and aqueous layers were repartitioned until consistent values were obtained. The log P is expressed as the logarithm of the ratio of the counts per minute from octanol versus that of water.

CSF1R [3] = target: T1, CSF1R (Homo sapiens, UniProt P07333); assay: binding study of radioligand on CSF1R-coated well plates
T1 construct: purchased Abcam
Description: A binding study of radioligand [^18F]1 for CSF1R was also performed using well plates coated with CSF1R.
A binding study of [^18F]1 for CSF1R was performed using detachable 96-well polystyrene plates (Nest Scientific, Rahway, NJ, USA). The plates were coated with 50 μL of CSF1R (200 μg/mL) in 0.05 M carbonate-bicarbonate buffer (pH 9.6). Non-coated plates were used for a control experiment. The CSF1R-coated and non-coated plates were incubated at 4 °C overnight and washed three times with PBS-T (20 mM PBS (pH 7.4) with 0.05% Tween-20). The unoccupied sites were blocked with blocking buffer (5% BSA in PBS-T) at room temperature for 1 h, and the plates were washed three times with PBS-T. [^18F]1 was dissolved in DMSO, and two-fold serial dilutions ranging from 1:100 to 1:400 were made from the radioligand solution. The diluted radioligand solutions were added to the CSF1R-coated and non-coated wells, which were then incubated at room temperature for 1 h. After incubation, the plates were washed three times with PBS-T. The wells were detached, and the radioligand bound to the wells was measured using a gamma counter and expressed as counts per minute (cpm). All experiments were performed in triplicate.

[4] = ex vivo biodistribution in control, LPS and LPS+block mice; parameters: species or system ICR mice; settings: for blood uptake / brain uptake / femur uptake / kidney uptake / liver uptake / muscle uptake / spleen uptake: 45 min after i.v. injection, n = 4
Description: Ex vivo biodistribution studies were performed in three groups of mice (control, LPS, and LPS+block groups) at 45 min after intravenous (i.v.) injection of [^18F]1. […] Therefore, we performed the ex vivo biodistribution studies at 45 min after injection of [^18F]1 (Table 2). […] The relatively low level of inhibition can be attributed to the injection route and time of the blocking agent, i.p. administration 5 min prior to radioligand injection, which might not have allowed time for sufficient blocking. However, most of the PET radioligands currently developed for CSF1R imaging have low uptake or high non-specific binding in the brains of rodents and non-human primates. […] In this context, further blocking studies of [^18F]1 need to be conducted using the optimized injection time points of the blocking agents and using other potent CSF1R inhibitors as the blocking agents. […] In addition, these biodistribution data matched with the whole-body PET images of the control and LPS mice (Figure S2).
ICR male mice aged between 5 and 6 weeks were used in this study. The mice were provided drinking water and a normal diet ad libitum and were maintained under a 12 h light-dark cycle at 24 ± 1 °C with 50% humidity. The LPS-treated mouse model was prepared by injecting LPS (10 mg/kg in saline) i.p. into mice, and all experiments were carried out on the third day after LPS injection. Tissue radioactivity was counted using an automatic gamma counter (PerkinElmer, Waltham, MA, USA). MicroPET/CT images were acquired using an Inveon microPET/CT scanner (Siemens Medical Solutions, Knoxville, TN, USA).
ICR mice were divided into three groups: control, LPS, and LPS+block groups (n = 4 per group). […] Control and LPS-treated mice were injected i.p. with 100 μL of vehicle (10% DMSO-saline) at 5 min prior to the radioligand injection. At 45 min after radioligand injection, mice were sacrificed by cervical dislocation, and the blood and major tissues (brain, muscle, femur, liver, spleen, and kidney) were separated, weighed, and counted. Data are expressed as a percentage of injected dose per gram of tissue (% ID/g).

[5] = dynamic microPET/CT imaging, whole brain time activity curve; format: in vivo, ICR mice; settings: control and LPS mouse, whole brain TAC
From the text: Dynamic PET/CT images of control and LPS mice were acquired, and the brain uptake was higher in the LPS mouse than in the control mouse (Figure 4A). […] In the control mouse, there was uptake in the decreasing order of the thalamus, striatum, hypothalamus, frontal cortex, and cerebellum (Figure 4C). In the 5.5-week-old mice used in our study, the frontal cortex and cerebellum had similar levels of uptake, although the cerebral cortex has markedly higher CSF1R expression than does the cerebellum in older adult mice. In the LPS mouse, a pattern similar to that of the control mouse was observed, with high uptake in the thalamus and striatum, and intermediate to low uptake in the hypothalamus, cerebellum, and frontal cortex (Figure 4C).
Dynamic PET scans of mice (one control and one LPS) were initiated simultaneously with tail vein injection of [^18F]1 (7.4 ± 0.1 MBq/mouse) and performed for 60 min (15 s × 8 frames, 30 s × 10 frames, 60 s × 3 frames, 240 s × 5 frames, 300 s × 6 frames, 32 frames in total); CT images followed for 20 min. […]
Analysis of dynamic PET data was performed using the PMOD 3.308 software (PMOD Technologies, Zurich, Switzerland). […] Several volumes of interest (VOIs) were determined on the mouse brain template: whole brain, striatum (mean value of the left and right striata), thalamus, hypothalamus, frontal cortex, and cerebellum. […]

[6] = metabolism study, HPLC of brain homogenates and blood samples; format: in vivo, ICR mice; settings: control mice
Description: In order to confirm that the brain uptake was due to the radioligand, we analyzed the brain homogenates and blood samples of control mice using HPLC. […] However, approximately 65% of the radioligand in the blood samples was converted to polar radiometabolites within 30 min after injection (Figure S3).
ICR mice (n = 1 per time point) were injected with [^18F]1 (18.5 MBq) via a tail vein. At 5 and 30 min after injection, mice were sacrificed, and samples of brain and blood were obtained. The samples were homogenized in 1 mL of acetonitrile and centrifuged. The supernatants were analyzed by HPLC using an analytical column eluted with a 45:55 mixture of 0.05 M ammonium formate (aq.) and acetonitrile at a flow rate of 1 mL/min. Eluates were monitored using a NaI(T1) radioactivity detector.

CSF1R [7] = target: T1, CSF1R; assay: FRET-based Z'-LYTE kinase assay, binding affinity for CSF1R; format: biochemical; settings: FRET-based method, 1 mM ATP, mean ± S.D. of three measurements
Description: The binding affinity of ligand 1 for CSF1R was measured using a fluorescence resonance energy transfer (FRET)-based method.
The final concentration of DMSO in the incubation mixture was 1%. The mixtures were incubated at room temperature for 1 h, followed by development reaction incubations at room temperature for 1 h. The fluorescence intensity of the incubation mixtures was measured (excitation, 400 nm; emission, 445 nm (donor) and 520 nm (acceptor)) using a Mithras^2 LB 943 monochromator multimode microplate reader (Berthold Technologies, Bad Wildbad, Germany), and the phosphorylation extent of the FRET-peptide was calculated. All experiments were performed in triplicate, and the IC50 values represent the average of three experimental determinations.

[8] = LPS+block mice (CPPC 1 mg/kg i.p. 5 min before)

T1 sequence (P07333 20-972, species assumed): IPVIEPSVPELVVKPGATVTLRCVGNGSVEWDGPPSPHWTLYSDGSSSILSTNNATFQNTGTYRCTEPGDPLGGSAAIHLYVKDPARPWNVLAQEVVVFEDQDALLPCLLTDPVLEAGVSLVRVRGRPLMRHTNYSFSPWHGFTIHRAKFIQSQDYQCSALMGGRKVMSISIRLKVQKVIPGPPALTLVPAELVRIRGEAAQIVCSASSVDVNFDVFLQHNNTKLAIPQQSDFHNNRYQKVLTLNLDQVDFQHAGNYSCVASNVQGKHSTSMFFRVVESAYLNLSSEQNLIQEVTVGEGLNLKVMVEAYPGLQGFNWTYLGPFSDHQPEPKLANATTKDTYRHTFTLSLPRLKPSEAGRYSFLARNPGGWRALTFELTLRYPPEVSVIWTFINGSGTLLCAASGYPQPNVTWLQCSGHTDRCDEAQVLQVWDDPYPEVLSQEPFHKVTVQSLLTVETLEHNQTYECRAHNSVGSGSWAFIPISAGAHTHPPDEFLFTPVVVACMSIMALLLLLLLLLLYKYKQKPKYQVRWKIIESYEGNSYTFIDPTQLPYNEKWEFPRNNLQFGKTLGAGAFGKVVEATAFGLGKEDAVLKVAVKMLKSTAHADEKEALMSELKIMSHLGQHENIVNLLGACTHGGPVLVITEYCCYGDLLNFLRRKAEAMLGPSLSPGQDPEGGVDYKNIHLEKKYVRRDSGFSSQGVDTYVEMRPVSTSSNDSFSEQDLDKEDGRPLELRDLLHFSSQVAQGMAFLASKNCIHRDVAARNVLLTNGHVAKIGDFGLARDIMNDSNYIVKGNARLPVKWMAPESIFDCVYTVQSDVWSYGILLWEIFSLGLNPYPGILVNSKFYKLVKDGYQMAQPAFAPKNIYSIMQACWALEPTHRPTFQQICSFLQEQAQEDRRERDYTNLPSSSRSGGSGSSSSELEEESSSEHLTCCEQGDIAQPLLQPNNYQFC

SMILES: COc1ccc(COc2ccc(Cc3cnc(N)nc3N)cc2O[11CH3])cc1 [[^11C]GW2580, 5-(3-[^11C]methoxy-4-((4-methoxybenzyl)oxy)benzyl)pyrimidine-2,4-diamine]
blocking of brain uptake with GW2580 (CSF1R [1]): 30%

logP [2]: 2.3 ± 0.01 | radioligand bound to CSF1R-coated wells relative to non-coated wells (control) (CSF1R [3]; 0.93 kBq radioligand): 3.31 fold | radioligand bound to CSF1R-coated wells relative to non-coated wells (control) (CSF1R [3]; 1.85 kBq radioligand): 5.07 fold | radioligand bound to CSF1R-coated wells relative to non-coated wells (control) (CSF1R [3]; 3.7 kBq radioligand): 7.14 fold | blood uptake ([4]; LPS mice): 1.21 ± 0.11 % ID/g | brain uptake ([4]; LPS mice): 2.14 ± 0.19 % ID/g | femur uptake ([4]; LPS mice): 1.95 ± 0.44 % ID/g | kidney uptake ([4]; LPS mice): 2.23 ± 0.08 % ID/g | liver uptake ([4]; LPS mice): 6.04 ± 0.91 % ID/g | muscle uptake ([4]; LPS mice): 1.03 ± 0.07 % ID/g | spleen uptake ([4]; LPS mice): 2.47 ± 0.19 % ID/g | blood uptake [4, 8]: 1.30 ± 0.11 % ID/g | brain uptake [4, 8]: 1.67 ± 0.16 % ID/g | femur uptake [4, 8]: 2.11 ± 0.37 % ID/g | kidney uptake [4, 8]: 2.04 ± 0.10 % ID/g | liver uptake [4, 8]: 3.15 ± 0.62 % ID/g | muscle uptake [4, 8]: 1.20 ± 0.19 % ID/g | spleen uptake [4, 8]: 1.45 ± 0.13 % ID/g | blood uptake ([4]; control mice): 0.93 ± 0.05 % ID/g | brain uptake ([4]; control mice): 1.20 ± 0.06 % ID/g | femur uptake ([4]; control mice): 1.80 ± 0.09 % ID/g | kidney uptake ([4]; control mice): 1.97 ± 0.05 % ID/g | liver uptake ([4]; control mice): 6.87 ± 0.48 % ID/g | muscle uptake ([4]; control mice): 0.96 ± 0.10 % ID/g | spleen uptake ([4]; control mice): 1.58 ± 0.20 % ID/g | time of peak whole brain uptake after radioligand injection [5]: ≤ 3 min | radioligand in blood converted to polar radiometabolites ([6]; blood samples, within 30 min after injection): approximately 65% | state of radioligand in the brain ([6]; brain homogenates at 5 and 30 min after injection): intact
SMILES: N#Cc1ccc(C(=O)Nc2ccc(N3CCN(CC[18F])CC3)cc2N2CCCCC2)o1 [[^18F]1, 5-cyano-N-(4-(4-(2-[^18F]fluoroethyl)piperazin-1-yl)-2-(piperidin-1-yl)phenyl)furan-2-carboxamide]
increase of brain uptake in LPS mice compared to control mice ([4]; 45 min after radioligand injection): 78%

IC50 (CSF1R [7]): 3.42 ± 0.33 nM
SMILES: N#Cc1ccc(C(=O)Nc2ccc(N3CCN(CCF)CC3)cc2N2CCCCC2)o1 [Ligand 1, 5-Cyano-N-(4-(4-(2-fluoroethyl)piperazin-1-yl)-2-(piperidin-1-yl)phenyl)furan-2-carboxamide]
